± gives the standard deviation of the averaged measurements. Each block holds one compound with its values, some of them ahead of it.
Assay: TIMS collisional cross section (CCS, N2) of the lipid ion; higher = larger ion cross section
Conditions: ionization mode: negative, one isomer drawn
Description: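 Lipid extracts of human plasma (NIST SRM 1950), mouse liver or HeLa cells were separated by nanoflow C18 LC (30 min gradient) and analysed by TIMS-PASEF on a timsTOF Pro. Ion mobility was calibrated with the Agilent tuning mix (negative mode ions) and converted to collisional cross sections (Mason–Schamp, N2).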

[1] = sample type: Human plasma, ion (formula + adduct): [C41H78NO8P-H] 1-
[2] = sample type: Mouse Liver, ion (formula + adduct): [C39H72NO8P-H] 1-
[3] = sample type: Human plasma, ion (formula + adduct): [C43H74NO8P-H] 1-
[4] = sample type: Mouse Liver, ion (formula + adduct): [C43H74NO8P-H] 1-
[5] = sample type: Mouse Liver, ion (formula + adduct): [C45H82NO8P-H] 1-
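Also: lipids from MTBE extraction, five replicate injections per sample, 100 ms TIMS ramp spanning 0.6–1.95 Vs/cm², lipid identity assigned from PASEF MS/MS spectra.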

Structure (SMILES): CCCCC/C=C\C/C=C\C/C=C\C/C=C\CCCC(=O)O[C@H](COC(=O)CCCCCCCCCCCCCCCC)COP(=O)(O)OCCN [PE 17:0_20:4]
TIMS collisional cross section (sample type: Mouse Liver, ion (formula + adduct): [C42H76NO8P-H] 1-): 273.9 Å²

Structure (SMILES): CCCCC/C=C\C/C=C\CCCCCCCC(=O)O[C@H](COC(=O)CCCCCCC/C=C\CCCCCCC)COP(=O)(O)OCCN [PE 17:1_18:2]
TIMS collisional cross section (sample type: Mouse Liver, ion (formula + adduct): [C40H74NO8P-H] 1-): 267.7 Å²

Structure (SMILES): CCCCC/C=C\C/C=C\C/C=C\C/C=C\CCCC(=O)O[C@H](COC(=O)CCCCCCC/C=C\CCCCCCC)COP(=O)(O)OCCN [PE 17:1_20:4]
TIMS collisional cross section (sample type: Mouse Liver, ion (formula + adduct): [C42H74NO8P-H] 1-): 271.6 Å²

Structure (SMILES): CC/C=C\C/C=C\C/C=C\C/C=C\C/C=C\C/C=C\CCC(=O)O[C@H](COC(=O)CCCCCCC/C=C\CCCCCCC)COP(=O)(O)OCCN [PE 17:1_22:6]
TIMS collisional cross section (sample type: Mouse Liver, ion (formula + adduct): [C44H74NO8P-H] 1-): 275.5 Å²

Structure (SMILES): CC/C=C\C/C=C\C/C=C\C/C=C\C/C=C\C/C=C\CCC(=O)OC(COC(=O)CCCCCCCCCCCCCCCCC)COP(=O)(O)OCCN (configuration not stated) [PE 18:0@_22:6]
TIMS collisional cross section (sample type: Human plasma, ion (formula + adduct): [C45H78NO8P+AcO] 1-): 297.5 Å²

Structure (SMILES): CCCCC/C=C\C/C=C\C/C=C\C/C=C\CCCC(=O)O[C@H](COC(=O)CCCCCCCCCCCCCCCCC)COP(=O)(O)OCCN [PE 18:0_20:4]
TIMS collisional cross section (sample type: Human plasma, ion (formula + adduct): [C43H78NO8P-H] 1-): 276.8 Å²
TIMS collisional cross section (sample type: Mouse Liver, ion (formula + adduct): [C43H78NO8P-H] 1-): 276.57 ± 0.29 Å²

Structure (SMILES): CC/C=C\C/C=C\C/C=C\C/C=C\C/C=C\C/C=C\CCC(=O)OC(COC(=O)CCCCCCCCCCCCCCCCC)COP(=O)(O)OCCN (configuration not stated) [PE 18:0_22:6]
TIMS collisional cross section (sample type: Human plasma, ion (formula + adduct): [C45H78NO8P-H] 1-): 281.8 Å²

Structure (SMILES): CCCCC/C=C\C/C=C\CCCCCCCC(=O)O[C@H](COC(=O)CCCCCCC/C=C\CCCCCCCC)COP(=O)(O)OCCN [PE 18:1_18:2]
TIMS collisional cross section (sample type: Human plasma, ion (formula + adduct): [C41H76NO8P-H] 1-): 272 Å²

Structure (SMILES): CCCCC/C=C\C/C=C\CCCCCCCC(=O)OC[C@H](COP(=O)(O)OCCN)OC(=O)CCCCCCC/C=C\CCCCCC [PE 18:2_16:1@]
TIMS collisional cross section [2]: 264 Å²

Structure (SMILES): CCCCC/C=C\C/C=C\CCCCCCCC(=O)OC[C@H](COP(=O)(O)OCCN)OC(=O)CCCCCCC/C=C\CCCCCC [PE 18:2_16:1]
TIMS collisional cross section (sample type: Human plasma, ion (formula + adduct): [C39H72NO8P-H] 1-): 264.3 Å²
TIMS collisional cross section [2]: 264.3 Å²

Structure (SMILES): CCCCC/C=C\C/C=C\CCCCCCCC(=O)OCC(COP(=O)(O)OCCN)OC(=O)CCCCCCC/C=C\C/C=C\CCCCC (configuration not stated) [PE 18:2_18:2]
TIMS collisional cross section (sample type: Human plasma, ion (formula + adduct): [C41H74NO8P-H] 1-): 268.8 Å²
TIMS collisional cross section (sample type: Mouse Liver, ion (formula + adduct): [C41H74NO8P-H] 1-): 268.8 Å²

Structure (SMILES): CC/C=C\C/C=C\C/C=C\C/C=C\CCCCC(=O)OC[C@H](COP(=O)(O)OCCN)OC(=O)CCCCCCCCCCCCCCCCC [PE 18:4_18:0@]
TIMS collisional cross section (sample type: Human plasma, ion (formula + adduct): [C41H74NO8P+AcO] 1-): 282.4 Å²

Structure (SMILES): CCCCC/C=C\C/C=C\C/C=C\C/C=C\CCCC(=O)O[C@H](COC(=O)CCCCCCCCCCCCCCCCCC)COP(=O)(O)OCCN [PE 19:0_20:4]
TIMS collisional cross section (sample type: Mouse Liver, ion (formula + adduct): [C44H80NO8P-H] 1-): 279.6 Å²

Structure (SMILES): CC/C=C\C/C=C\C/C=C\C/C=C\C/C=C\C/C=C\CCC(=O)O[C@H](COC(=O)CCCCCCCCC/C=C\CCCCCCCC)COP(=O)(O)OCCN [PE 20:1_22:6]
TIMS collisional cross section (sample type: Mouse Liver, ion (formula + adduct): [C47H80NO8P-H] 1-): 285.8 Å²

Structure (SMILES): CC/C=C\C/C=C\C/C=C\C/C=C\C/C=C\C/C=C\CCC(=O)O[C@H](COC(=O)CCCCCCCCC/C=C\C/C=C\CCCCC)COP(=O)(O)OCCN [PE 20:2_22:6]
TIMS collisional cross section (sample type: Mouse Liver, ion (formula + adduct): [C47H78NO8P-H] 1-): 283.4 Å²

Structure (SMILES): CCCCC/C=C\C/C=C\C/C=C\CCCCCCC(=O)OC[C@H](COP(=O)(O)OCCN)OC(=O)CCCCCCCCCCCCCCC [PE 20:3_16:0]
TIMS collisional cross section (sample type: Mouse Liver, ion (formula + adduct): [C41H76NO8P-H] 1-): 271.1 Å²

Structure (SMILES): CCCCC/C=C\C/C=C\C/C=C\C/C=C\CCCC(=O)OC[C@H](COP(=O)(O)OCCN)OC(=O)CCCCCCCCCCCCC [PE 20:4_14:0]
TIMS collisional cross section (sample type: Mouse Liver, ion (formula + adduct): [C39H70NO8P-H] 1-): 263.7 Å²

Structure (SMILES): CCCCC/C=C\C/C=C\C/C=C\C/C=C\CCCC(=O)OC[C@H](COP(=O)(O)OCCN)OC(=O)CCCCCCC/C=C\C/C=C\CCCCC [PE 20:4_18:2@]
TIMS collisional cross section [3]: 275.6 ± 3.2 Å²

Structure (SMILES): CCCCC/C=C\C/C=C\C/C=C\C/C=C\CCCC(=O)OC[C@H](COP(=O)(O)OCCN)OC(=O)CCCCCCC/C=C\C/C=C\CCCCC [PE 20:4_18:2]
TIMS collisional cross section [4]: 272.7 Å²

Structure (SMILES): CCCCC/C=C\C/C=C\C/C=C\C/C=C\CCCC(=O)OC[C@H](COP(=O)(O)OCCN)OC(=O)CCCCCCCCCCCCCCCCCCC [PE 20:4_20:0]
TIMS collisional cross section [5]: 281.8 Å²

Structure (SMILES): CC/C=C\C/C=C\C/C=C\C/C=C\C/C=C\C/C=C\CCC(=O)O[C@H](COC(=O)CCC/C=C\C/C=C\C/C=C\C/C=C\CCCCC)COP(=O)(O)OCCN [PE 20:4_22:6]
TIMS collisional cross section (sample type: Mouse Liver, ion (formula + adduct): [C47H74NO8P-H] 1-): 280.6 Å²

Structure (SMILES): CC/C=C\C/C=C\C/C=C\C/C=C\C/C=C\CCCC(=O)OC[C@H](COP(=O)(O)OCCN)OC(=O)CCCCCCCCCCCCCCCCC [PE 20:5@_18:0]
TIMS collisional cross section (sample type: Human plasma, ion (formula + adduct): [C43H76NO8P-H] 1-): 276.2 Å²

Structure (SMILES): CC/C=C\C/C=C\C/C=C\C/C=C\C/C=C\CCCC(=O)OC[C@H](COP(=O)(O)OCCN)OC(=O)CCCCCCCCCCCCCCC [PE 20:5_16:0]
TIMS collisional cross section (sample type: Human plasma, ion (formula + adduct): [C41H72NO8P-H] 1-): 269.4 Å²
TIMS collisional cross section (sample type: Mouse Liver, ion (formula + adduct): [C41H72NO8P-H] 1-): 269.4 Å²

Structure (SMILES): CC/C=C\C/C=C\C/C=C\C/C=C\C/C=C\CCCC(=O)OC[C@H](COP(=O)(O)OCCN)OC(=O)CCCCCCC/C=C\CCCCCCCC [PE 20:5_18:1]
TIMS collisional cross section [3]: 274.5 Å²
TIMS collisional cross section [4]: 273.9 Å²

Structure (SMILES): CCCCC/C=C\C/C=C\C/C=C\C/C=C\CCCCCC(=O)OC[C@H](COP(=O)(O)OCCN)OC(=O)CCCCCCCCCCCCCCCCC [PE 22:4_18:0]
TIMS collisional cross section (sample type: Human plasma, ion (formula + adduct): [C45H82NO8P-H] 1-): 283.6 Å²
TIMS collisional cross section [5]: 283 Å²

Next, values leading:

TIMS collisional cross section [1]: 273.4 Å²
Structure (SMILES): CCCCC/C=C\C/C=C\CCCCCCCC(=O)OC(COC(=O)CCCCCCCCCCCCCCCCC)COP(=O)(O)OCCN (configuration not stated) [PE 18:0@_18:2]

TIMS collisional cross section (sample type: Mouse Liver, ion (formula + adduct): [C39H78NO8P-H] 1-): 269.5 Å²
Structure (SMILES): CCCCCCCCCCCCCCCCCC(=O)OC[C@H](COP(=O)(O)OCCN)OC(=O)CCCCCCCCCCCCCCC [PE 18:0_16:0]

TIMS collisional cross section (sample type: Mouse Liver, ion (formula + adduct): [C41H82NO8P-H] 1-): 275.1 Å²
Structure (SMILES): CCCCCCCCCCCCCCCCCC(=O)OCC(COP(=O)(O)OCCN)OC(=O)CCCCCCCCCCCCCCCCC (configuration not stated) [PE 18:0_18:0]

TIMS collisional cross section (sample type: Human plasma, ion (formula + adduct): [C41H80NO8P-H] 1-): 274.6 Å²
Structure (SMILES): CCCCCCCC/C=C\CCCCCCCC(=O)OC(COC(=O)CCCCCCCCCCCCCCCCC)COP(=O)(O)OCCN (configuration not stated) [PE 18:0_18:1]

TIMS collisional cross section (sample type: Mouse Liver, ion (formula + adduct): [C41H78NO8P-H] 1-): 272.8 Å²
Structure (SMILES): CCCCC/C=C\C/C=C\CCCCCCCC(=O)OC(COC(=O)CCCCCCCCCCCCCCCCC)COP(=O)(O)OCCN (configuration not stated) [PE 18:0_18:2]

TIMS collisional cross section (sample type: Mouse Liver, ion (formula + adduct): [C42H82NO8P-H] 1-): 278 Å²
Structure (SMILES): CCCCCCCCC/C=C\CCCCCCCC(=O)O[C@H](COC(=O)CCCCCCCCCCCCCCCCC)COP(=O)(O)OCCN [PE 18:0_19:1]

TIMS collisional cross section (sample type: Mouse Liver, ion (formula + adduct): [C43H84NO8P-H] 1-): 282 Å²
Structure (SMILES): CCCCCCCC/C=C\CCCCCCCCCC(=O)O[C@H](COC(=O)CCCCCCCCCCCCCCCCC)COP(=O)(O)OCCN [PE 18:0_20:1]

TIMS collisional cross section [1]: 272.3 Å²
Structure (SMILES): CCCCCCCC/C=C\CCCCCCCC(=O)OCC(COP(=O)(O)OCCN)OC(=O)CCCCCCC/C=C\CCCCCCCC (configuration not stated) [PE 18:1_18:1]

TIMS collisional cross section (sample type: Mouse Liver, ion (formula + adduct): [C45H84NO8P-H] 1-): 284.1 Å²
Structure (SMILES): CCCCC/C=C\C/C=C\CCCCCCCCCCCC(=O)O[C@H](COC(=O)CCCCCCC/C=C\CCCCCCCC)COP(=O)(O)OCCN [PE 18:1_22:2]

TIMS collisional cross section (sample type: Mouse Liver, ion (formula + adduct): [C43H80NO8P-H] 1-): 277.3 Å²
Structure (SMILES): CCCCC/C=C\C/C=C\C/C=C\CCCCCCC(=O)OC[C@H](COP(=O)(O)OCCN)OC(=O)CCCCCCCCCCCCCCCCC [PE 20:3_18:0]

TIMS collisional cross section (sample type: Mouse Liver, ion (formula + adduct): [C47H86NO8P-H] 1-): 288 Å²
Structure (SMILES): CCCCC/C=C\C/C=C\C/C=C\C/C=C\CCCC(=O)OC[C@H](COP(=O)(O)OCCN)OC(=O)CCCCCCCCCCCCCCCCCCCCC [PE 20:4_22:0]
